Results: patent publication US8110543B2, “Anti-invasive and anti-angiogenic compositions” (Angstrom Pharmaceuticals, Inc., priority 1997, dated 2012)
“Also recorded” adds a separate entry of the source.

Legend:
[1] = tested on: Mat B-III tumors; test: Rat syngeneic Mat B-III breast cancer model; format: in vivo; settings: 75 mg/kg/day IP b.i.d.
[2] = tested on: MDA-MB-231 human breast cancer cells; test: MDA-MB-231 GFP xenograft model; format: in vivo, mice
Method: Nude mice (n=5 per group) were challenged with 2×10^5 tumor cells co-injected into the mammary fat pad of the mice with Matrigel. […] Control animals received vehicle (PBS) only.
These cells were first transfected with green fluorescent protein (GFP) to simplify the detection and visualization of metastases.
The tumor cells (5×10^5) were suspended in 0.1 mL of Matrigel and injected into the mammary fat pad of female BALB/c nu/nu mice. Treatment (75 mg/kg/day) was initiated when the tumors were palpable (10 mm^3, approximately 4 weeks after inoculation of tumor cells) and continued for 5 weeks. Tumor volumes were determined twice per week using caliper measurements. The animals were euthanized at the end of the 5th week of treatment, necropsied and examined for macroscopic metastases. Sections prepared from LNs, lung, liver, spleen and kidney were analyzed for microscopic dissemination of tumor cells using fluorescence microscopy to detect GFP-positive foci.
Macroscopic metastases were enumerated and their size measured with calipers (Table I below). Microscopic dissemination of tumor cells was quantitated by counting GFP-positive foci in representative sections from lung, liver, kidney and spleen.
Macrometastases were determined by excising involved LNs and determining the tumor volume by caliper measurement. Microscopic tumor foci were quantitated by sectioning and fixing target organs, then visualizing GFP-labeled cells using fluorescence microscopy (at 200× enlargement). The number of disseminated tumor foci represents the average of 5 fields per section from 3 different sections per organ.

[3] = tested on: 3LL; test: 3LL metastasis model, related peptides; parameters: species or system mice; settings: mouse, in vivo
Description: This model has been utilized by a number of investigators. See, for example, Gorelik, E. et al., J. Nat'l. Canc. Inst. 65:1257-1264 (1980); Gorelik, E. et al., Rec. Results Canc Res. 75:20-28 (1980); Isakov, N. et al., Invasion Metas. 2:12-32 (1982); Talmadge J. E. et al., J. Nat'l. Canc. Inst. 69:975-980 (1982); Hilgard, P. et al, Br. J. Cancer 35:78-86 (1977)). Test mice are male C57BL/6 mice, 2-3 months old. Following sc, im, or intra-footpad implantation, this tumor produces metastases, preferentially in the lungs. With some lines of the tumor, the primary tumor exerts anti-metastatic effects and must first be excised before study of the metastatic phase (see also U.S. Pat. No. 5,639,725).
Single-cell suspensions are prepared from solid tumors by treating minced tumor tissue with a solution of 0.3% trypsin. Cells are washed 3 times with PBS (pH 7.4) and suspended in PBS. Viability of the 3LL cells prepared in this way is generally about 95-99% (by trypan blue dye exclusion). Viable tumor cells (3×10^4-5×10^6) suspended in 0.05 ml PBS are injected subcutaneously, either in the dorsal region or into one hind foot pad of C57BL/6 mice. Visible tumors appear after 3-4 days after dorsal sc injection of 10^6 cells. The day of tumor appearance and the diameters of established tumors are measured by caliper every two days.
The treatment is given as one or two doses of peptide or derivative, per week. In another embodiment, the peptide is delivered by osmotic minipump.
Lungs are removed and weighed. Lungs are fixed in Bouin's solution and the number of visible metastases is recorded. The diameters of the metastases are also measured using a binocular stereoscope equipped with a micrometer-containing ocular under 8× magnification. On the basis of the recorded diameters, it is possible to calculate the volume of each metastasis. To determine the total volume of metastases per lung, the mean number of visible metastases is multiplied by the mean volume of metastases. To further determine metastatic growth, it is possible to measure incorporation of ^125IdUrd into lung cells (Thakur, M. L. et al., J. Lab. Clin. Med. 89:217-228 (1977). Ten days following tumor amputation, 25 μg of fluorodeoxyuridine is inoculated into the peritoneums of tumor-bearing (and, if used, tumor-resected mice). After 30 min, mice are given 1 μCi of ^125IdUrd (iododeoxyuridine). One day later, lungs and spleens are removed and weighed, and a degree of ^125IdUrd incorporation is measured using a gamma counter.
In addition to Å6, other related peptide compounds described above are tested for efficacy in vivo in the 3LL model (as provided above) as well as the PC-3 model. PC-3 cells transfected with the gene encoding the enzyme chloramphenicol acetyl-transferase (CAT) are inoculated into mice i.v. at doses of 1×10^6 cells per mouse. These mice are implanted with a minipump, as above, which dispenses 100 mg/kg/day of the peptide or vehicle over a period of 14 or 21 days. At termination of treatment, the animals are euthanized and the tumor marker probe is assayed in regional lymph nodes, femurs, lungs, and brain.

[4] = tested on: matrix metalloproteinases MMP2 and MMP9; test: EnzCheck gelatinase assay (MMP activity); format: biochemical; settings: concentrations up to 100 μM; HT1080 supernatant activated with phenylmercuric acetate
Method: HT1080 cells were grown in the presence of dexamethasone for 24 hrs and the supernatant collected and treated with phenylmercuric acetate to activate proMMPs.

[5] = tested on: HepG2; test: In vitro proliferation, HepG2 cells; format: cell-based
Method: Å6 was also tested for its ability to inhibit the proliferation of cells other than endothelial cells in vitro.

[6] = tested on: U87 tumors; test: U87 glioblastoma orthotopic model; format: in vivo, mice
Method: U87 cells were inoculated into the ventricles of nude mice and treatment was initiated 72 hrs after inoculation. Tumor volume was determined using caliper measurements after euthanasia and necropsy.
A: Control; B: Å6 only; C: CDDP only; D: Å6+CDDP.
U87 tumors were surgically inoculated into the cerebral ventricles of mice. The animals were allowed to recover for 72 hours at which time treatment with Å6 (75 mg/kg/day IP bid), CDDP (3 mg/kg/day given every other day from day 4×6 administrations), or a combination of Å6+CDDP was initiated,
Animals were treated for 21 days at which time they were euthanized and their brains evaluated for the presence of tumor. Transverse sections were stained with hematoxylin and eosin (H&E).
Tumor sections were also evaluated for microvessel density using antibodies specific for mouse-CD31 in immunostaining. Very few CD31^+ foci were evident in animals treated with the combination of Å6+CDDP.
Tumors were established as in the previous section, and the same therapeutic regimens were employed. Treatment was discontinued at day 21, and survival was measured. Control animals appeared moribund around day 25 and all of the animals in this group were dead by day 30.

[7] = average of 5 fields per section from 3 sections

Ac-KPSSPPEE-NH2 [Å6, CH3CO-Lys-Pro-Ser-Ser-Pro-Pro-Glu-Glu-NH2]
macroscopic metastasis (number of macroscopic foci) [1]: continued to be suppressed; also recorded: inhibited | tumor growth (volume of primary tumor) [1]: inhibits | growth of primary challenge tumors ([2]; IP, 1 mg bid, started when tumor nodules palpable (FIG. 15)): inhibits the growth | Disseminated GFP-positive Tumor Foci, Liver [2, 7]: 3.11 ± 0.14 | Disseminated GFP-positive Tumor Foci, Lung [2, 7]: 2.09 ± 0.30 | Disseminated GFP-positive Tumor Foci, Spleen [2, 7]: 28.30 ± 2.80 | Macroscopic Metastases, Lungs, Number ([2]; end of 5th week of treatment): 1 ± 0 | Macroscopic Metastases, Lymph Nodes, Number ([2]; end of 5th week of treatment): 1.2 ± 0.2 | Macroscopic Metastases, Lymph Nodes, Size ([2]; end of 5th week of treatment): 7 ± 3 mm^3 | single foci versus larger colonies in organ sections ([2]; liver and lungs): greater number of single foci | Factor VIII-positive hot spots in tumor sections ([2]; mouse, in vivo): decrease | TUNEL-positive foci in tumor sections ([2]; mouse, in vivo): significant increase | metastasis, 3LL model [3]: markedly inhibited | inhibition of gelatinase activity [4]: did not inhibit | anti-proliferative effect, HepG2 [5]: No anti-proliferative effects | solubility: > 100 mg/mL | differentiation of the vessels ([6]; qualitative): fewer branching vessels | microvessel density (CD31+ foci), angiogenesis ([6]; tumor sections, mouse-CD31 immunostaining): inhibited angiogenesis to some extent
